Tests used:
MV4-11 cells = experiment: Annexin V Staining (apoptosis); format: cell-based, human; conditions: MV4-11, 48 hours, fixed ratio 4:1 Tipifarnib and Compound A
Text: The ultimate goal of treatment for FLT3 related disorders is to kill the disease causative cells and to cause regression of disease. […] Annexin V binding to phosphotidyl serine that has translocated from the inner leaflet of the plasma membrane to the outer leaflet of the plasma membrane and is a well established way to measure apoptosis of cells. See van Engeland M., L. J. Nieland, et al. (1998) “Annexin V-affinity assay: a review on an apoptosis detection system based on phosphatidylserine exposure.” Cytometry. 31(1):1-9.
After the compound incubations, treated cells were harvested and stained with Annexin V-PE and 7-AAD using the Guava Nexin apoptosis kit according to the protocol in the Biological Activity Measurements section hereafter. Annexin V staining peaks at 60% because cells late in apoptosis begin to fall apart and are considered debris. […] Statistical analysis using the above described method of Chou and Talalay was also performed to determine the synergy of the combination. […] The magnitude of the synergistic induction of apoptosis of MV4-11 cells by the combination of an FTI and a FLT3 inhibitor could not be predicted by those skilled in the art. […]
Annexin V Staining. […] All annexin positive cells were considered apoptotic and percent Annexin positive cells was calculated.

MV4-11 AML cells = experiment: Cell proliferation assay, single agents and FTI/FLT3 inhibitor combinations, MV4-11; format: cell-based, human
Method: Using this method inhibitors are added simultaneously to cells in a ratio of the IC50 dose of each compound alone. The data is collected and subject to isobolar analysis of fixed ratio dose combinations as described by Chou and Talalay. This analysis is used to generate a combination index or CI. The CI value of 1 corresponds to compounds that behave additively; CI values <0.9 are considered synergistic and CI values of >1.1 are considered antagonistic. Using this method, multiple FTI and FLT3 combinations were evaluated. […] Using the isobologram, synergy can be graphically represented. Data points for combinations that are additive lie along the isobolar line at a given dose affect (CI=1). Data points for combinations that are synergistic fall to the left, or under, the isobolar line for a given dose effect (CI<0.9). Data points for combinations that are antagonistic fall to the right, or over, the isobolar line for a given dose effect (CI>1.1).
Inhibition data was analyzed using Calcsyn (BioSoft, Ferguson, Mo.) and the combination index (C.I.) calculated. C.I. values <0.9 are considered synergistic.

Baf3-ITD cells = experiment: Cell proliferation assay, single agents and FTI/FLT3 inhibitor combinations, Baf3-ITD; format: cell-based, murine
Method: (§1) The cell lines that were tested included those that are dependent on FLT3ITD mutant activity for growth (MV4-11 and Baf3-FLT3ITD), FLT3 wt activity for growth (Baf3FLT3) and those that grow independent of FLT3 activity (THP-1). […] Baf3-FLT3 and Baf3-FLT3ITD cell lines were obtained from Dr. Michael Henrich and the Oregon Health Sciences University. The Baf3 FLT3 cell lines were created by stable transfection of parental Baf3 cells (a murine B cell lymphoma line dependent on the cytokine IL-3 for growth) with either wild-type FLT3 or FLT3 containing the ITD insertion in the juxatamembrane domain of the receptor resulting in its constitutive activation. Cells were selected for their ability to grow in the absence of IL-3 and in either the presence of FLT3 ligand (Baf3-FLT3) or independent of any growth factor (Baf3-ITD). […]
(§2) Dose responses for the individual compounds alone were determined for each cell line using a standard 72-hour cell proliferation assay (see FIGS. 6.1-6.8). […]
(§3) To statistically evaluate the synergy of a FLT3 inhibitor and an FTI in FLT3 dependent cell lines, dosing combinations were evaluated by the method of Chou and Talalay. See Chou T C, Talalay P. (1984) “Quantitative analysis of dose-effect relationships: the combined effects of multiple drugs or enzyme inhibitors.” Adv Enzyme Regul. […] Using this method, multiple FTI and FLT3 combinations were evaluated. […]

[1] = tested on: Baf3-FLT3 cells stimulated with 100 ng/ml FLT ligand; experiment: Cell proliferation assay, single agents and FTI/FLT3 inhibitor combinations, Baf3-FLT3; format: cell-based, murine
Method: as §1, §2, §3

Q: What does the source list for `Cn1cncc1C(N)(c1ccc(Cl)cc1)c1ccc2c(c1)c(-c1cccc(Cl)c1)cc(=O)n2C` (single isomer, unassigned; (+)) [Tipifarnib, (+)-6-[amino(4-chlorophenyl)(1-methyl-1H-imidazol-5-yl)methyl]-4-(3-chlorophenyl)-1-methyl-2(1H)-quinolinone]?
A: shift of EC50 for the induction of annexin V staining in combination (MV4-11 cells): more than eight-fold; IC50 (MV4-11 AML cells; Homo sapiens, MV4-11 proliferation, FTI alone or in the combination named): 15.4 nM; increase in potency of Tipifarnib with a single sub-IC50 dose of FLT3 inhibitor Compound A (MV4-11 AML cells; MV4-11, Compound A 50 nM): more than 3 fold; increase in potency of Tipifarnib with a single sub-IC50 dose of FLT3 inhibitor Compound A (Baf3-ITD cells; Baf3-ITD, Compound A 50 nM): more than 3 fold; IC50 (Baf3-ITD cells; Mus musculus, Baf3-ITD proliferation, FTI alone or in the combination named): 548 nM; increase in potency of Tipifarnib with a single sub-IC50 dose of FLT3 inhibitor Compound A ([1]; Baf3-FLT3, Compound A 100 nM): more than 3 fold; IC50 ([1]; Mus musculus, Baf3-FLT3 proliferation, FTI alone or in the combination named): 1.85 nM

From patent US20060281700A1, “SYNERGISTIC MODULATION OF FLT3 KINASE USING AMINOPYRIMIDINES KINASE MODULATORS” (priority 2005, published 2006)
